Measured values published in US9452155B2, “Injectable antibiotic formulations and their methods of use” (BAYER NEW ZEALAND LTD, priority 2012, dated 2016).
Values belong to the molecule of their own block, whether it stands above or below them.

Experiments:
[1] = 20° C.; cited from earlier work
[2] = format: physicochemical
Text: Thus the long term stability of PNT with triacetin (or other oily vehicles) is highly unexpected. […] After one month in accelerated stability the components of the composition appeared to degrade rapidly with a resulting colour change from an off-white to a dark yellow with dark brown sludge forming. The degradation components appeared to include a gas, resulting in the container swelling from the resultant pressure. Accordingly, the formulations described in CN 1517090 are not known to be storage stable.

[3] = cited from earlier work

SMILES: CC(=O)OCC(COC(C)=O)OC(C)=O [Triacetin]
viscosity [1]: approximately 23 mPas

chemical stability on storage in oily vehicles [2]: chemically unstable
SMILES: CC1(C)S[C@@H]2[C@H](NC(=O)Cc3ccccc3)C(=O)N2[C@H]1C(=O)O [benzylpenicillin]

SMILES: CCN(CC)CCOC(=O)[C@@H]1N2C(=O)[C@@H](NC(=O)Cc3ccccc3)[C@H]2SC1(C)C.I [penethamate hydroiodide]
time to peak serum levels (measured as dissociated penicillin G) ([3]; after injection (Friton 2003)): 3.76 h
share of the active drug present in its hydrolysed form (benzylpenicillin) at equilibrium ([3]; blood pH (7.2), after intramuscular administration): 91.8%

chemical stability on storage in oily vehicles [2]: chemically unstable
chemical stability when substituted for penethamate in the preferred formulation [2]: chemically unstable
SMILES: CC1(C)S[C@@H]2[C@H](NC(=O)Cc3ccccc3)C(=O)N2[C@H]1C(=O)O.CCN(CC)CCOC(=O)c1ccc(N)cc1 [procaine penicillin]
